We go through 6 molecules from patent US20250319139A1, “METHODS FOR TREATING NEUROINFLAMMATION” (University of Virginia Patent Foundation, priority 2021, published 2025).

Series [1] deals with IL-17. Nature of the series: ELISA of IL-17 in the serum. The format is in vivo, mouse. To be noted: mice without MCAO; 1 mg/kg by gastric gavage after each valeric sodium 100 mg/kg intraperitoneal injection, 7 days. As to the method: (§1) Mice were weighed and anesthetized with isoflurane at 24 h after MCAO. Blood samples were obtained from the right heart after thoracotomy. Blood was centrifuged (13,000 g, 4° C.) after it had been placed at 4° C. for 2 h for the collection of serum. After the collection of blood, mice were perfused with 4° C. saline for brain tissue harvesting. The cerebral cortex (anteroposterior: −1.5 to 2.5 mm, mediolateral: 1.0 to 3.0 mm) was dissected out. All dissection procedures were performed on ice.
(§2) IL-10, IL-17, IL-1β and IL-6 in the serum and brain were detected by using ELISA kits (catalog number: M1000B, M1700, MLB00C and D6050, R&D SYSTEM, Inc., Minneapolis, MN, USA) as we described before. The brain tissues were homogenized on ice in the RIPA buffer containing 25 mM Tris-HCl with pH 7.6, 150 mM NaCl, 1% sodium deoxycholate and 0.1% SDS (catalog number: 89901, Thermo Scientific, Rockford, IL, USA) and a protease inhibitor cocktail containing 10 mg/ml aproteinin, 5 mg/ml peptastin, 5 mg/ml leupetin and 1 mM phenylmethane sulfonylfluoride (catalog number: SRE0055, Sigma-Aldrich, St. Louis, MO, USA). The supernatant was collected for ELISA detection after being centrifuged for 20 min (13,000 g, 4° C.) and the protein concentration was determined by the BCA method. Cytokines in the serum and supernatant of brain were detected according to the manufacturer's instruction. The amount of IL-10, IL-17, IL-1β and IL-6 in each sample in the brain was normalized by its protein content.

Series [2] has as its system IL-17. Nature of the series: ELISA of IL-17 in the brain. The format is in vivo, mouse. Particulars: mice without MCAO; 1 mg/kg by gastric gavage after each valeric sodium 100 mg/kg intraperitoneal injection, 7 days. Here is the method: as §1, §2
Series [3] concerns C57BL/6J mice. Nature of the series: Novel object recognition test, young adult mice. The format is in vivo, mouse. To be noted: surgery mice; intracerebroventricular 10 μg/kg at 0, 24, 48 and 72 h after surgery; vs solvent.
For series [4], the system named is C57BL/6J mice. Nature of the series: Barnes maze test, young adult mice. Particulars: surgery mice; intracerebroventricular 10 μg/kg at 0, 24, 48 and 72 h after surgery; vs solvent. The format is in vivo, mouse.
In another series the test system is gut microbiota. Particulars: 300 mg/kg intraperitoneal once daily for 5 consecutive days; previous study [20]; cited from earlier work.
Series [5] relates to C57BL/6J mice. Nature of the series: Infarct volume after MCAO. The format is in vivo, mouse. Particulars: young mice, 100 mg/kg intraperitoneal 1 h before and 6 h after 120-min MCAO; 24 h after MCAO; vs saline. As to the method: As we described previously, left MCAO with intravascular suture technique was performed to mice. Briefly, mice were anesthetized with isoflurane and the rectal temperature was maintained at 37±0.5° C. by the feedback-controlled heating system. A monofilament nylon suture (catalog number: 1622-A1, Beijing CiNontech Co. Ltd., Beijing, China) was used to induce the MCAO via the external carotid artery to the left internal carotid artery until slight resistance was felt. […]
The infarct volumes were assessed 24 h after MCAO by a blinded investigator after 2,3,5-triphenyltetrazolium chloride staining. […] The average infarct area of the rostral and caudal sides of each slice was calculated. The infarct volume of the brain slice was calculated by multiplying the average infarct area of the slice by the thickness of the slice. […] To correct the cerebral edema and differential shrinkage resulting from brain ischemia and tissue processing, the corrected brain infarct volume was calculated: corrected brain infarct volume in percentage=[right hemisphere volume-(left hemisphere volume-left infarction volume)]×100/right hemisphere volume.

For series [6], the system named is IL-6. Nature of the series: ELISA of IL-6 in the brain. The format is in vivo, mouse. To be noted: young mice, 100 mg/kg intraperitoneal 1 h before and 6 h after 120-min MCAO; 24 h after MCAO; vs saline. As to the method: as §2, with “Mice were weighed and anesthetized with isoflurane at 24 h after MCAO. Blood samples were obtained from the right heart after thoracotomy. Blood was centrifuged (13,000 g, 4° C.) after it had been placed at 4° C. for 2 h for the collection of serum. After the collection of blood, mice were perfused with 4° C. saline for brain tissue harvesting. The cerebral cortex (anteroposterior: -1.5 to 2.5 mm, mediolateral: 1.0 to 3.0 mm) was dissected out. All dissection procedures were performed on ice. IL-10,” for “IL-10,”, “[…],” for “peptastin,”, “The amount of IL-10, IL-17, IL-1β and IL-6 in each sample in the brain was normalized by its protein content.” left out
A general note: ELISA stands for enzyme-linked immunosorbent assay.

The test system of series [7] is IL-1β. Nature of the series: ELISA of IL-1β in the brain. To be noted: young mice, 100 mg/kg intraperitoneal 1 h before and 6 h after 120-min MCAO; 24 h after MCAO; vs saline. The format is in vivo, mouse. As to the method: as §2, with “Mice were weighed and anesthetized with isoflurane at 24 h after MCAO. Blood samples were obtained from the right heart after thoracotomy. Blood was centrifuged (13,000 g, 4° C.) after it had been placed at 4° C. for 2 h for the collection of serum. After the collection of blood, mice were perfused with 4° C. saline for brain tissue harvesting. The cerebral cortex (anteroposterior: -1.5 to 2.5 mm, mediolateral: 1.0 to 3.0 mm) was dissected out. All dissection procedures were performed on ice. IL-10,” for “IL-10,”, “[…],” for “peptastin,”, “The amount of IL-10, IL-17, IL-1β and IL-6 in each sample in the brain was normalized by its protein content.” left out

The nature of series [8]: Valeric acid in the blood by ELISA (pilot dosage experiment). The format is in vivo, mouse. Particulars: young mice, 100 mg/kg intraperitoneal twice at an interval of 7 h; blood 3 h after second injection; pilot study. Here is the method:
A pilot experiment was performed to determine the dosage of valeric acid used in this study. Eight-week old mice were divided into two groups: Y-Saline group that received two intraperitoneal 100 μl normal saline injections at an interval of 7 h, and Y-Valeric group that received two intraperitoneal 100 mg/kg in 100 μl valeric sodium injections at an interval of 7 h. One group of 18-month old mice that was labeled O-Saline received two intraperitoneal 100 μl normal saline injections at an interval of 7 h. Blood was harvested 3 h after the second injection of valeric sodium or normal saline to measure valeric acid.
Valeric acid in the blood harvested from the experiment to determine the dosage of valeric acid injected intraperitoneally was measured by using an ELISA kit (catalog number: JM-12270M1, Jingmei Biotechnology, Jiangsu, China) following the manufacturer's instructions.

The subject of series [9] is C57BL/6J mice. Description: Rotarod test after MCAO. Particulars: young mice, 100 mg/kg intraperitoneal 1 h before and 6 h after 120-min MCAO; 24 h after MCAO; vs saline. The format is in vivo, mouse. Here is the method:
(§3) As we described previously, left MCAO with intravascular suture technique was performed to mice. Briefly, mice were anesthetized with isoflurane and the rectal temperature was maintained at 37±0.5° C. by the feedback-controlled heating system. A monofilament nylon suture (catalog number: 1622-A1, Beijing CiNontech Co. Ltd., Beijing, China) was used to induce the MCAO via the external carotid artery to the left internal carotid artery until slight resistance was felt. Mice were re-anesthetized by isoflurane and the sutures were removed at 60 min (only for the set of experiments of old mice with fecal transplantation; this selection was because of a high mortality rate after a longer MCAO) or 120 min (for all other sets of experiments) after the onset of MCAO.
Rotarod test was performed to evaluate the motor coordination as we described before. All mice received the training for three continuous days before the induction of brain ischemia. The formal test was performed just 24 h before and 24 h after the MCAO. […] The latency and the speed were recorded when the tested mice fell off the rod. […] The speed-latency index, which is latency(s)×speed (rpm), was calculated. The ratio of mean index of the five trials obtained after MCAO and before MCAO was calculated to reflect the change in coordinate function of each mouse.
Background: The rotarod test checks motor coordination on a turning rod.

The test system of series [10] is C57BL/6J mice. Nature of the series: Neurological deficit scores after MCAO. The format is in vivo, mouse. Particulars: young mice, 100 mg/kg intraperitoneal 1 h before and 6 h after 120-min MCAO; 24 h after MCAO; vs saline. As to the method: as §3
Neurological deficit scores were tested 24 h after the stroke by a blinded investigator [25, 26]. Briefly, mice were scored as follows: zero, no apparent deficits; one, failure to extend right forepaw fully; two, decreased grip of the right forelimb; three, spontaneous movement in all directions, contralateral circling only if pulled by the tail; four, circling or walking to the right; five, walking only if stimulated; six, unresponsiveness to stimulation and with depressed level of consciousness; and seven, dead.

In series [11] the test system is IL-6. Description: IL-6 in the hippocampus by ELISA. The format is in vivo, mouse. Particulars: intracerebroventricular injection at surgery; hippocampus 48 h after surgery. As to the method:
(§4) IL-1β, IL-6, C3 and GDNF in the hippocampus were detected by using ELISA kits. For testing the IL-1β, IL-6 and GDNF, brain tissues were homogenized on ice in the RIPA buffer containing 25 mM Tris-HCl with pH 7.6, 150 mM NaCl, 1% sodium deoxycholate, 0.1% SDS and a protease inhibitor cocktail containing 10 mg/ml aproteinin, 5 mg/ml peptastin, 5 mg/ml leupetin and 1 mM phenylmethane sulfonylfluoride. For C3 testing, brain tissues were homogenized on ice in the PTR buffer (supplied in the kit). The supernatant was collected for ELISA detection after the homogenate was centrifuged at 13,000 g for 20 min at 4° C. and the protein concentration was determined by the BCA protein assay (Bio-Rad, Hemel Hempstead, Herts, UK). IL-1β, IL-6, C3 and GDNF in supernatant of brain were detected according to the manufacturer's instruction for ELISA, and the amount of them in each sample in the brain was normalized by its total protein content and was expressed as pg/mg protein.

In series [12] the test system is IL-1β. Nature of the series: IL-1β in the hippocampus by ELISA. To be noted: intracerebroventricular injection at surgery; hippocampus 48 h after surgery. The format is in vivo, mouse. Here is the method:
as §4

A further series has as its system C3. Nature of the series: C3 in the hippocampus by ELISA. The format is in vivo, mouse. Particulars: intracerebroventricular injection at surgery; hippocampus 48 h after surgery. Here is the method:
as §4

Regarding `C[C@]1(C(=O)N(CCCC(=O)O)Cc2cccc(Cl)c2)CCN1C(=O)c1csc2ccccc12` [GLPG-0974], in the series with IL-17 [1], the “increase of IL-17 in the blood caused by valeric acid” value is listed as “blocked the increase”. Moreover, the “increase of IL-17 in the brain (cerebral cortex) caused by valeric acid” value with IL-17 [2] is “blocked the increase”.
As for `NC(N)=NCCC[C@H](NC(=O)COCC(c1ccccc1)c1ccccc1)C(=O)O` [SB290157], the “performance in novel object recognition test” value with C57BL/6J mice [3] was “improved the performance”. For the same molecule, the “time to identify target box in Barnes maze” value with C57BL/6J mice [4] is listed as “took less time”.
`Cc1nnc(SCC2=C(C(=O)O)N3C(=O)[C@@H](NC(=O)Cn4cnnn4)[C@H]3SC2)s1` [cefazolin]: in the series on gut microbiota, the “gut microbiota in the colon by 16S rRNA analyses” value is “almost undetectable level”.
With `CCCCC(=O)[O-].[Na+]` [valeric sodium], the infarct volume result with C57BL/6J mice [5] is given as “larger”. In the series with IL-6 [6], the “IL-6 in the ischemic penumbral brain tissues” value is “increased”. Besides, the “IL-1β in the ischemic penumbral brain tissues” value in the series on IL-1β [7] is recorded as “increased”. Besides, the “concentrations of valeric acid in the blood” value in series [8] is given as “a level similar to that in the old mice”. For the same molecule, the performance on rotarod entry in the series on C57BL/6J mice [9] is “poorer performance”. Further, the neurological deficit scores result with C57BL/6J mice [10] is recorded as “worse”.

B1: GDNF: recombinant mouse GDNF (glia-derived nerve factor) (protein, UniProt P48540 78-211, looked up)
Glial cell line-derived …: SPDKQAAALPRRERNRQAAAASPENSRGKGRRGQRGKNRGCVLTAIHLNVTDLGLGYETKEELIFRYCSGSCESAETMYDKILKNLSRSRRLTSDKVGQACCRPVAFDDDLSFLDDNLVYHILRKHSAKRCGCI
As for B1, the “IL-6 levels in the hippocampus after surgery” value with IL-6 [11] is “reduced”. In addition, the “IL-1β levels in the hippocampus after surgery” value in the series with IL-1β [12] is “reduced”. In the series with C3, the “C3 levels in the hippocampus after surgery” value is on record as “reduced”.

B2: heat-inactivated GDNF: heat-denatured (5 min at 100° C.) GDNF solution (protein, UniProt P48540 78-211, looked up)
Glial cell line-derived …: SPDKQAAALPRRERNRQAAAASPENSRGKGRRGQRGKNRGCVLTAIHLNVTDLGLGYETKEELIFRYCSGSCESAETMYDKILKNLSRSRRLTSDKVGQACCRPVAFDDDLSFLDDNLVYHILRKHSAKRCGCI
modifications: heat-denatured
notes: heat-denatured (5 min at 100° C.) GDNF solution
For B2, the “IL-6 levels in the hippocampus after surgery” value with IL-6 [11] is given as “not”. Further, the “C3 levels in the hippocampus after surgery” value in the series with C3 is given as “not”.
